The values that follow come from patent US8778958B2, “Synthesis of metabolically stable agents for alcohol and drug abuse” (priority 2008, dated 2014).

The target of series [1] is NOP (nociceptin) receptor (Homo sapiens, UniProt P41146).
The nature of series [2]: Solubility in H2O. The note with it: for solubility: water; for Solubility in H2O: salt as labelled.
Series [3] has as its system rats trained to self-administer a 10% (w/v) ethanol solution. Description: Operant oral ethanol self-administration. The series is classed as in vivo, rat. As to conditions: for Overall effect on operant self-administration of 10% ethanol: ANOVA, treatment 30 min prior to testing.
Protocol: (§1) Ethanol or saccharin (SACC) self-administration training was conducted in standard operant cages (Coulbourn Instruments, PA) located in sound-attenuated, ventilated cubicles. Two 35-ml syringes dispensed either ethanol/SACC or water through plastic tubing into two stainless steel drinking cups mounted 4 cm above the grid floor and centered on the front panel of each chamber. Each drinking cup held 2 reinforcer deliveries (0.1 ml fluid/reinforcer). Two retractable levers were located 4.5 cm to either side of the drinking cups. Fluid delivery and recording of operant responses were controlled by a microcomputer. Briefly, animals were trained to voluntarily self-administer 10% (w/v) ethanol (n=10) or saccharin (n=6) by the oral route using the saccharin fadeout method^39 and were tested for their response for ethanol or saccharin solution in a two-lever free choice situation. Once baseline ethanol and saccharin intake were achieved (i.e., when responding across 3 consecutive days varied less than 20% and response rates correspond to pharmacologically relevant blood alcohol levels (BALs)), dose response testing for each compound commenced. To allow for a complete dissipation of any carry-over effects, a one week washout period, where rats were re-baselined during daily 30 min operant sessions, occurred between testing of each compound.
(§2) Data were collected on-line simultaneously from multiple operant chambers. Results of the operant procedure are reported as mean cumulative number of bar presses for ethanol or saccharin. In general, tests for homogeneity of variance were first performed on the data. […] Data were analyzed using the StatView statistical package on a PC-compatible computer. Mixed-design ANOVAs were used with drug treatments as a within-subjects factor (i.e., repeated measures design for drug treatment). A priori analysis examining individual drug doses to vehicle control dose was conducted using paired t-tests. Significant drug effects were defined as having p<0.05 compared to vehicle-treated rats.
The nature of series [4]: Metabolic stability, mouse liver microsomes. The note with it: for half-life at 40 μM: mouse, microsomes, pH 7.4.
Protocol: (§3) A typical assay mixture contained rat or mouse liver microsomes or human liver S-9 (0.4-0.5 mg of protein), 100 μM potassium phosphate buffer (pH 7.4), 40 μM test compound, an NADPH-generating system consisting of 0.5 mM NADP^+, 0.5 mM glucose-6-phosphate, 5 IU/mL glucose-6-phosphate dehydrogenase, 1 mg/mL DETAPAC and 7 mM MgCl2 for a final incubation volume of 0.1 mL^23. […] After centrifugation at 13,000 rpm for 5 min, the organic fraction was collected and the solvent was removed with a stream of argon. The residue was reconstituted in methanol (200 L), centrifuged at 13,000 rpm for 5 min and the supernatant was analyzed by high-performance liquid chromatography with an Axxi-chrom (straight-phase) silica column (4.6 mm×250 mm, 5 m) or with a Supelco (reverse-phase) HS F5 pentafluorophenyl column (4.6 mm×250 mm, 5 m) as described above.
Series [5] in a line: Metabolic stability, human liver S-9. The note with it: for half-life at 40 μM: human, s9, pH 7.4.
Protocol: as §3
The subject of series [6] is rats trained to orally self-administer a 0.025% saccharin solution. Description: Operant oral saccharin self-administration (control). The series is classed as in vivo, rat. As to conditions: for Overall effect on operant self-administration of saccharin vs vehicle: ANOVA.
Protocol: as §1, §2
Series [7] has as its target T1, κ-opioid receptor (Mus musculus, UniProt P33534).
T1 construct: FLAG; expressed in transfected cells
The experiment in a line: biochemical. Also noted: species or system human. The note with it: read-out: Emax, κ, stimulation of [35S]GTPγS binding.

Series [8] concerns the target T2, μ-opioid receptor (Mus musculus, UniProt P42866).
T2 construct: FLAG; expressed in transfected cells
The experiment in a line: biochemical. Further details: species or system human. The note with it: read-out: Emax, μ, stimulation of [35S]GTPγS binding.

Series [9] has as its target T3, δ-opioid receptor (Mus musculus, UniProt P32300).
T3 construct: hemagglutinin (HA); expressed in transfected cells
The experiment in a line: biochemical. The note with it: read-out: Emax, δ, stimulation of [35S]GTPγS binding. Also noted: species or system human.

Where [10] appears, read: doses of 0.0125, 0.025 and 0.05 mg/kg.
The mark [11] stands for this setting: 40 μM test compound, NADPH-generating system, NC = No Change.

NOP (nociceptin) receptor, sequence (P41146 whole entry): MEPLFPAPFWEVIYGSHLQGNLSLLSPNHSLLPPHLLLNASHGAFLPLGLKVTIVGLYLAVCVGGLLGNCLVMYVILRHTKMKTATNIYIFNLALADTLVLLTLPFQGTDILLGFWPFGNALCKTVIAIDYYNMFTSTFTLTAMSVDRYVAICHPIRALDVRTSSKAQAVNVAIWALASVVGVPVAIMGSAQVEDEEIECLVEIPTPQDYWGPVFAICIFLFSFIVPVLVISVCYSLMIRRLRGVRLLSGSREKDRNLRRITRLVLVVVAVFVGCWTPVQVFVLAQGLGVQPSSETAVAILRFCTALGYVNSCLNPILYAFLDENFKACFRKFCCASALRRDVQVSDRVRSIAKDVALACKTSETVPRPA
T2 sequence (P42866 whole entry): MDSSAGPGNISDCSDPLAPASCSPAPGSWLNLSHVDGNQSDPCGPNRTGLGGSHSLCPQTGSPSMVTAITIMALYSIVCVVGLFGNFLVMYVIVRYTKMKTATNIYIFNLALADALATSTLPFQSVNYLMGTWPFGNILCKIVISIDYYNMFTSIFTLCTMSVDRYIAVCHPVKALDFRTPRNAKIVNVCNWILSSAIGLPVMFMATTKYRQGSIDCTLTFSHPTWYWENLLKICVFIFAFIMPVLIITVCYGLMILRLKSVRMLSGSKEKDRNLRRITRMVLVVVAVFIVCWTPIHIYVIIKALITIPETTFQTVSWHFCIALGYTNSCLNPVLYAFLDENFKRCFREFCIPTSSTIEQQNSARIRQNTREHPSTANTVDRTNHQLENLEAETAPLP
T3 sequence (P32300 whole entry): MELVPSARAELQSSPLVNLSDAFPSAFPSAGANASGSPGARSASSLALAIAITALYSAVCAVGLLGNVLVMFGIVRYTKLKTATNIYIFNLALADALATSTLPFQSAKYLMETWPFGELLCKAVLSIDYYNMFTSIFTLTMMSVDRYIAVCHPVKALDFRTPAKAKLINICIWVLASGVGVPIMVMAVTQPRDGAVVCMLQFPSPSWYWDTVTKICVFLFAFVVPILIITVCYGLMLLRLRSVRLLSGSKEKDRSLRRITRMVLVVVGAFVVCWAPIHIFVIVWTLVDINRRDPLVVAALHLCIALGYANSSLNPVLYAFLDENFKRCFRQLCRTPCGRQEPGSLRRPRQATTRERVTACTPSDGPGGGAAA
T1 sequence (P33534 whole entry): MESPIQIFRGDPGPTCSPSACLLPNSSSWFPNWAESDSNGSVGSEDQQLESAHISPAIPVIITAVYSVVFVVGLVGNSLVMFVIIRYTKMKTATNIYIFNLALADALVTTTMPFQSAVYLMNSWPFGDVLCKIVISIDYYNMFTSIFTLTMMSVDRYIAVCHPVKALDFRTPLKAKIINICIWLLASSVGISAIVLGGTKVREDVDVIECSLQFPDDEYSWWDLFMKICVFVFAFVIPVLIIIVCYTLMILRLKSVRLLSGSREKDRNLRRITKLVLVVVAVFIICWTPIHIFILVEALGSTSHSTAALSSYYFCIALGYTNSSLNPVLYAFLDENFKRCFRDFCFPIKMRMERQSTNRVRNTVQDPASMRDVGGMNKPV

For the compound “[D-pen2, D-pen5]-enkephalin [Compound 14, reference compound]”, the Emax in series [1] was 0%.

As to `CN(C(=O)/C=C/c1ccoc1)[C@@H]1CC[C@@]2(O)[C@H]3Cc4ccc(O)c5c4[C@@]2(CCN3CC2CC2)[C@H]1O5.O=C(O)C(=O)O` (relative stereo) [Compound 20b-oxalate, 17-Cyclopropylmethyl-3,14β-dihydroxy-4,5α-epoxy-6β-[N-methyl-trans-3-(3-furyl)acrylamido]morphinan oxalate], in [2], the solubility was determined as 32000 µg/mL.

On to `CN(C(=O)c1ccc(Cl)cc1)[C@@H]1CC[C@@]2(O)[C@H]3Cc4ccc(O)c5c4[C@@]2(CCN3CC2CC2)[C@H]1O5.O=C(O)C(=O)O` [17b—Oxalate, 6-β-(4′-Chloro)-N-methylbenzamido-14-hydroxy-17-(cyclopropylmethyl)nordesmorphine oxalate], for which, in [2], the “Solubility in H2O” value amounted to 6000 µg/mL.

As to `CC(C)(C)c1ccc(C(=O)N[C@@H]2CC[C@@]3(O)[C@H]4Cc5ccc(O)c6c5[C@@]3(CCN4CC3CC3)[C@H]2O6)cc1` [Compound 8, 6-(4′-t-Butyl)benzamido-14-hydroxy-17-(cyclopropylmethyl)nordesmorphine], the melting point came out at 151.1 °C. For the same compound, the “Overall effect on operant self-administration of 10% ethanol” value (“Overall effect … of 10% ethanol” for short) in series [3] is “had an overall effect”. Moreover, the “Post hoc analysis vs vehicle, operant self-administration of 10% ethanol” value (“Post hoc analysis vs vehicle … of 10% ethanol” below) in series [3] (only a dose of 0.05 mg/kg) was “significantly inhibited”. Besides, the maximal response (Emax) in series [1] was 0%. This compound also showed a half-life at 40 μM in [4] of more than 112 min. Besides, in series [5], the half-life at 40 μM was more than 112 min. In series [6], the “Overall effect on operant self-administration of saccharin vs vehicle” value (shortened to “Overall effect … vs vehicle”) is reported as “did not have an overall effect”.

In turn, `O=C(N[C@@H]1CC[C@@]2(O)[C@H]3Cc4ccc(O)c5c4[C@@]2(CCN3CC2CC2)[C@H]1O5)c1ccc(C(F)(F)F)cc1` [Compound 5, 6-β-(4′-Trifluoromethyl)benzamido-14-hydroxy-17-(cyclopropylmethyl)nordesmorphine] returned a melting point of 157.5 °C. The Emax in series [7] fell in the range of 28 to 63%. Further, in [3], the “Overall effect … of 10% ethanol” value is on record as “had an overall effect”. Besides, the “Post hoc analysis vs vehicle … of 10% ethanol” value in series [3] (setting [10]) is recorded as “significantly inhibited”. The Emax in [1] is 0%. For the same compound, the “Half Life, Mouse liver preparation” value in series [4] (setting [11]) is reported as “remained unchanged”. In addition, the “Half Life, Human liver preparation” value in series [5] (setting [11]) was “remained unchanged”. Further, the Emax in series [8] lay in the range of 28 to 63%. Further, the “Overall effect … vs vehicle” value in series [6] is given as “did have an overall effect”. Besides, in [6] ([…] for 5, 0.05 mg/kg for 6, the only such doses), the “Post-hoc analysis vs vehicle, self-administration of saccharin” value is listed as “significantly inhibited”.

In the case of `CC(C)(C)c1ccc(C(=O)N[C@@H]2CC[C@@]3(O)[C@H]4Cc5ccc(O)c6c5[C@@]3(CCN4CC3CC3)[C@H]2O6)cc1.O=C(O)C(=O)O` [Compound 8-oxalate, 6-β-(4′-t-Butyl)benzamido-14-hydroxy-17-(cyclopropylmethyl)nordesmorphine-oxalate], the “Solubility in H2O” value in series [2] came out at 6000 µg/mL.

Regarding `CN(C(=O)c1ccc(Cl)cc1)[C@H]1CC[C@@]2(O)[C@H]3Cc4ccc(O)c5c4[C@@]2(CCN3CC2CC2)[C@H]1O5.O=C(O)C(=O)O` [17a—Oxalate, 6-α-(4′-Chloro)-N-methylbenzamido-14-hydroxy-17-(cyclopropylmethyl)nordesmorphine oxalate], the “Solubility in H2O” value in series [2] stood at 10000 µg/mL.

On to `CN(C(=O)c1ccc(C(C)(C)C)cc1)[C@H]1CC[C@@]2(O)[C@H]3Cc4ccc(O)c5c4[C@@]2(CCN3CC2CC2)[C@H]1O5.O=C(O)C(=O)O` [16a—Oxalate, 6-α-(4′-t-Butyl)-N-methylbenzamido-14-hydroxy-17-(cyclopropylmethyl)nordesmorphine oxalate], for which, in series [2], the “Solubility in H2O” value came out at 3300 µg/mL.

As for `CN(C(=O)c1ccc(Cl)c(Cl)c1)[C@@H]1CC[C@@]2(O)[C@H]3Cc4ccc(O)c5c4[C@@]2(CCN3CC2CC2)[C@H]1O5.O=C(O)C(=O)O` [18b—Oxalate, 6-β-(3′,4′-Dichloro)-N-methylbenzamido-14-hydroxy-17-(cyclopropylmethyl)nordesmorphine oxalate], the “Solubility in H2O” value in series [2] came out at 16000 µg/mL.

In [2], `CN(C(=O)/C=C/c1ccoc1)[C@H]1CC[C@@]2(O)[C@H]3Cc4ccc(O)c5c4[C@@]2(CCN3CC2CC2)[C@H]1O5.O=C(O)C(=O)O` (relative stereo) [20a—Oxalate, 17-Cyclopropylmethyl-3,14β-dihydroxy-4,5α-epoxy-6α-[N-methyl-trans-3-(3-furyl)acrylamido]morphinan oxalate] showed a solubility of 16000 µg/mL.

As for `CN(C(=O)c1ccc(I)cc1)[C@H]1CC[C@@]2(O)[C@H]3Cc4ccc(O)c5c4[C@@]2(CCN3CC2CC2)[C@H]1O5.O=C(O)C(=O)O` [15a—Oxalate, 6-α-(4′-Iodo)-N-methylbenzamido-14-hydroxy-17-(cyclopropylmethyl)nordesmorphine oxalate], the “Solubility in H2O” value in [2] is 5000 µg/mL.

As for `O=C(N[C@@H]1CC[C@@]2(O)[C@H]3Cc4ccc(O)c5c4[C@@]2(CCN3CC2CC2)[C@H]1O5)c1ccc(I)cc1` [Compound 7, 6-β-(4′-Iodo)benzamido-14-hydroxy-17-(cyclopropylmethyl)nordesmorphine], in series [3], the “Overall effect … of 10% ethanol” value is given as “had an overall effect”. Further, in series [3] (only a dose of 0.05 mg/kg), the “Post hoc analysis vs vehicle … of 10% ethanol” value is listed as “significantly inhibited”. In addition, the figures for the Emax in series [1], in series [9] and in series [8] were 0%, 28 to 63% and 28 to 63%, respectively. Further, in [6], the “Overall effect … vs vehicle” value is “did have an overall effect”.

Take `CN(C(=O)c1ccc(Br)cc1)[C@@H]1CC[C@@]2(O)[C@H]3Cc4ccc(O)c5c4[C@@]2(CCN3CC2CC2)[C@H]1O5.O=C(O)C(=O)O` [14b. Oxalate, 6-β-(4′-Bromo)-N-methylbenzamido-14-hydroxy-17-(cyclopropylmethyl)nordesmorphine Oxalate]: the “Solubility in H2O” value in series [2] was 20000 µg/mL.

Take `O=C(N[C@@H]1CC[C@@]2(O)[C@H]3Cc4ccc(O)c5c4[C@@]2(CCN3CC2CC2)[C@H]1O5)c1ccc(C(F)(F)F)cc1.O=C(O)C(=O)O` [Compound 5-oxalate, 6-β-(4′-Trimethylfluoro)benzamido-14-hydroxy-17-(cyclopropylmethyl)nordesmorphine-oxalate]: in series [2], the “Solubility in H2O” value was determined as 1000 µg/mL.

Regarding `CN(C(=O)c1ccc(I)cc1)[C@@H]1CC[C@@]2(O)[C@H]3Cc4ccc(O)c5c4[C@@]2(CCN3CC2CC2)[C@H]1O5.O=C(O)C(=O)O` [15b—Oxalate, 6-β-(4′-Iodo)-N-methylbenzamido-14-hydroxy-17-(cyclopropylmethyl)nordesmorphine oxalate], the “Solubility in H2O” value in [2] came to 20000 µg/mL.

`C=C1CC[C@@]2(O)[C@H]3Cc4ccc(O)c5c4[C@@]2(CCN3CC2CC2)[C@H]1O5` [Compound 1b, nalmefene, reference compound]: in series [3], the “Overall effect … of 10% ethanol” value is “had an overall effect”. The ED50 in series [3] (Rattus norvegicus, po, read-out: ED50 for ethanol self-administration) was approximately 0.04 mg/kg. Moreover, the “Post hoc analysis vs vehicle … of 10% ethanol” value in [3] (setting [10]) is listed as “significantly inhibited”. The half-life at 40 μM in series [4] and in [5] was 20 min each time. The “Overall effect … vs vehicle” value in series [6] is reported as “did not have an overall effect”.

For `CN(C(=O)c1ccc(Br)cc1)[C@H]1CC[C@@]2(O)[C@H]3Cc4ccc(O)c5c4[C@@]2(CCN3CC2CC2)[C@H]1O5.O=C(O)C(=O)O` [14a—Oxalate, 6-α-(4′-Bromo)-N-methylbenzamido-14-hydroxy-17-(cyclopropylmethyl)nordesmorphine oxalate], in series [2], the “Solubility in H2O” value came out at 6700 µg/mL.

Turning to `CN(C(=O)c1ccc(C(F)(F)F)cc1)[C@@H]1CC[C@@]2(O)[C@H]3Cc4ccc(O)c5c4[C@@]2(CCN3CC2CC2)[C@H]1O5.O=C(O)C(=O)O` [13b—Oxalate, 6-β-(4′-Trifluoromethyl)-N-methylbenzamido-14-hydroxy-17-(cyclopropylmethyl)nordesmorphine oxalate], the “Solubility in H2O” value in series [2] amounted to 4700 µg/mL.

As to `O=C(/C=C/c1ccoc1)N[C@@H]1CC[C@@]2(O)[C@H]3Cc4ccc(O)c5c4[C@@]2(CCN3CC2CC2)[C@H]1O5.O=C(O)C(=O)O` (relative stereo) [Compound 19b.Oxalate, 17-Cyclopropylmethyl-3,14β-dihydroxy-4,5α-epoxy-6β-[-trans-3-(3-furyl)acrylamido]morphinan oxalate], in series [2], the solubility worked out at 24000 µg/mL.

Take `Cc1ccc(C(=O)N[C@@H]2CC[C@@]3(O)[C@H]4Cc5ccc(O)c6c5[C@@]3(CCN4CC3CC3)[C@H]2O6)cc1.O=C(O)C(=O)O` [Compound 4-oxalate, 6-β-(4′-Methyl)benzamido-14-hydroxy-17-(cyclopropylmethyl) nordesmorphine oxalate]: the “Solubility in H2O” value in series [2] came out at 2000 µg/mL.

On to `CN(C(=O)c1ccc(Cl)c(Cl)c1)[C@H]1CC[C@@]2(O)[C@H]3Cc4ccc(O)c5c4[C@@]2(CCN3CC2CC2)[C@H]1O5.O=C(O)C(=O)O` [18a—Oxalate, 6-α-(3′,4′-Dichloro)-N-methylbenzamido-14-hydroxy-17-(cyclopropylmethyl)nordesmorphine oxalate], for which, in [2], the “Solubility in H2O” value came to 6700 µg/mL.
